{"source": "paper PMC7071076", "about": "“Antibacterial Activity and Pharmacokinetic Profile of a Promising Antibacterial Agent: 22-(2-Amino-phenylsulfanyl)-22-Deoxypleuromutilin” (Molecules, 2020)", "key": {"MRSA ATCC 43300 [1]": {"tested_on": "MRSA ATCC 43300", "assay": "Postantibiotic effect (PAE)", "assay_type": "cell-based, Staphylococcus aureus", "protocol": "The PAE was determined with previously methods. MRSA in logarithmic phase was diluted to 10^6 CFU/mL using MH broth as the inoculum. […] The group in which the drug was replaced by 0.9% saline was served as the control. All the samples were incubated at 37 °C for 1 and 2 h. At the end of incubation, the drug was removed by 1000-fold dilution with MH broth which was preheated at 37 °C. After well mixing, the broth was further cultured at 37 °C. 100 µL culture solution was extracted at different time intervals (0, 1, 2, 4, 6, and 8 h). Following a 10-fold dilution, colonies were counted after 20 h of incubation. The kinetic curve was established with the logarithm of the colony number as the ordinate and the time as the abscissa. The PAE was presented in hour and calculated by the equation PAE = TA − TC [40]. TA was defined as the culture time required for the number of MRSA to up to 1 log CFU/mL after the drug removal, and TC was the culture time required for the control group."}, "[2]": {"assay": "Acute oral toxicity study", "settings": "both sexes, KM, mouse, in vivo, 5000 mg/kg; mice, oral (gavage), single dose", "protocol": "(§1) The acute toxicity test mainly referred to the previous reports with some modifications. Seven male and seven female KM mice in SPF grade were used for this study. Amphenmulin was formulated in DMSO and given in a single- dose at 5000 mg/kg by gavage, while the control group were given DMSO without drug. […] The median lethal dose (LD50) was calculated by modified Karber method on day 15. The experiment was repeated twice."}, "KM mice": {"tested_on": "KM mice", "assay": "Acute oral toxicity study", "settings": "mouse, in vivo, 5000 mg/kg", "protocol": "as §1"}, "MRSA ATCC 43300 [3]": {"tested_on": "MRSA ATCC 43300", "assay": "MRSA wound infection model: wound bacterial burden", "assay_type": "in vivo, mice", "protocol": "(§2) Six weeks SPF-ICR female mice were used for this study. The Experimental model, inducted of inflammatory in mice by skin excision, was established referring to existing methods with some alterations. The mice were anesthetized with the intravenous injection of 1% sodium pentobarbital. After their hair on the back was shaved, the mice were anesthetized and the back skin was perforated with a biopsy perforator at a depth of fascia injury. The inoculum (50 μL), containing 10^9 CFU/mL of the indicated microorganism (MRSA ATCC 43300), was applied on the wound for three times at 30 min intervals. 100 μL drug (3 mg/mL) was administrated on the wound at 1 h after inoculation for three consecutive days. A total of 100 μL blank matrix was given to the infected control group and the non-infected group in the same way. The wound was wrapped with sterile gauze. During the treatment, all mice were kept individually and free to eat and drink.\nAt the end of the examination, mice were anesthetized and killed. Tissue samples, reaching to the muscle membrane, were removed from the middle of the wound surface and homogenized in 0.9% saline. Serially diluted aliquots of homogenate were cultured on high-salt mannitol agar plate at 37 °C for 24 h. The log of the colony number was used for statistical analysis."}, "MCP-1": {"tested_on": "MCP-1", "assay": "MRSA wound infection model: serum cytokine ELISA", "assay_type": "in vivo, mice", "settings": "three days after treatment (method: 24 h), p < 0.05", "protocol": "as §2\n(§3) After administration for 24 h, blood samples were collected from the ocular venous plexus and were prepared to serum samples as previously described. The contents of IL-6, TNF-α, and MCP-1 in serum were detected using ELISA kits according to the instruction. All ELISA kits were purchased from Shanghai Enzyme-linked Biotechnology Co., Ltd. (Shanghai, China)."}, "TNF-α": {"tested_on": "TNF-α", "assay": "MRSA wound infection model: serum cytokine ELISA", "assay_type": "in vivo, mice", "settings": "three days after treatment (method: 24 h), p < 0.05", "protocol": "as §2, §3"}}}
{"smiles": "C=C[C@]1(C)C[C@@H](OC(=O)CSc2ccccc2N)[C@]2(C)[C@H](C)CC[C@]3(CCC(=O)[C@H]32)[C@@H](C)[C@@H]1O", "note": "[Amphenmulin, 22-(2-amino-phenylsulfanyl)-22-deoxypleuromutilin]", "values": [{"measurement": "PAE", "setting": "MRSA ATCC 43300 [1]; 1× MIC, exposure for 1 h", "value": 0.71, "unit": "h"}, {"measurement": "PAE", "setting": "MRSA ATCC 43300 [1]; 1× MIC, exposure for 2 h", "value": 1.35, "unit": "h"}, {"measurement": "PAE", "setting": "MRSA ATCC 43300 [1]; 4× MIC, exposure for 1 h", "value": 1.78, "unit": "h"}, {"measurement": "PAE", "setting": "MRSA ATCC 43300 [1]; 4× MIC, exposure for 2 h", "value": 2.83, "unit": "h"}, {"measurement": "LD50 at 14 days", "setting": "[2]", "value": "> 5000", "unit": "mg/kg"}, {"measurement": "mortality", "setting": "KM mice", "value": "No mice died"}, {"measurement": "abnormal symptoms", "setting": "KM mice; po", "value": "increase in the heart rate, excitement of some mice and inappetence"}, {"measurement": "number of bacteria in wound tissue vs infected group", "setting": "MRSA ATCC 43300 [3]; one day after treatment, p < 0.05", "value": "significant decrease"}, {"measurement": "number of bacteria in wound tissue", "setting": "MRSA ATCC 43300 [3]; three days after treatment, 100 μL drug (3 mg/mL) on the wound", "value": "4.47 ± 0.66", "unit": "log10 CFU/mL"}, {"measurement": "MCP-1 in the serum vs infection group", "setting": "MCP-1", "value": "significantly decreased"}, {"measurement": "TNF-α in the serum vs infection group", "setting": "TNF-α", "value": "significantly decreased"}]}
